Experiments:
[1] = tested on: HSV-1; experiment: Viral titer from Vero cells pre-treated with oligonucleotide, HSV-1; assay type: cell-based, African Green monkey (Vero cells); settings: cells infected with HSV-1
Protocol: (§1) Vero cells, a cell line derived from African Green monkey kidney, were pre-treated with varying concentrations of ISS or non-ISS oligonucleotides for varying times prior to the addition of HSV-1 or HSV-2. Oligonucleotides were used at 1 μg/ml or 10 μg/ml and the cells were incubated with the oligonucleotides for 30 seconds, 10 minutes or 24 hours. Viral titers were calculated as a percent of control titer generated by cells not treated with the oligonucleotides. The data are expressed as percent of control titer.

[2] = tested on: HSV-2; experiment: Viral titer from Vero cells pre-treated with oligonucleotide, HSV-2; assay type: cell-based, African Green monkey (Vero cells); settings: cells infected with HSV-2
Protocol: as §1

[3] = tested on: HSV-1; experiment: Viral titer after pre-treating HSV-1 virus with oligonucleotide, Vero cells; assay type: cell-based, African Green monkey (Vero cells)
Protocol: (§2) HSV-1 or HSV-2 virus was pre-treated with varying concentrations of ISS or non-ISS oligonucleotides for 10 minutes prior to adding the mixture to plated Vero cells. Oligonucleotides were used at 1 μg/ml or 10 μg/ml. Viral titers were calculated as a percent of control titer generated by cells not treated with the oligonucleotides. The data are expressed as percent of control titer.

[4] = tested on: HSV-2; experiment: Viral titer after pre-treating HSV-2 virus with oligonucleotide, Vero cells; assay type: cell-based, African Green monkey (Vero cells)
Protocol: as §2

[5] = tested on: HSV-2 strain MS; experiment: Recurrent genital HSV-2 disease in guinea pigs; assay type: in vivo, Swiss Hartley guinea pigs; settings: 3 times/day for 7 days starting 6 hours post inoculation (21 treatments)
[6] = tested on: HBV; experiment: Chronic HBV model: serum HBV DNA and HBsAg in STC transgenic mice; assay type: in vivo, STC strain transgenic mice; settings: STC mice; ISS 100 μg SC; murine IL-12 100 ng IP days 12, 13, 14
Protocol: ISS activity was tested in an animal model of chronic hepatitis. An ISS-containing phosphorothioate oligonucleotide (5′-[…]-3′) (SEQ ID NO:1), was delivered to STC strain transgenic mice, followed by measurement of HBV DNA and HBsAg production.
STC line mice were developed at Stanford University by Patricia Marion. The majority of these mice secrete HBV of the Ayw genotype (Galibert et al. (1979) Nature 281:646) to titers of 10^6-8 viral genome equivalents per ml of serum. STC mice were derived from the FVB strain, and were constructed by microinjection of HBV genomic DNA.
Approximately one month old mice were bled and tested for serum levels of HBsAg, which is predictive of viral DNA titer. A pool of 40 STC mice with approximately equal levels of HBsAg were selected and randomly assigned to four treatment groups of 10 animals each. The groups were treated as follows: • 1. 100 μg of ISS injected subcutaneously, once per week for 3 weeks (days 0, 7, 14) • 2. 100 μg of ISS injected subcutaneously, one injection at day 14 • 3. 100 ng of murine 1L-12 injected intraperitoneally on days 12, 13, and 14. • 4. PBS injected subcutaneously (days 0, 7, 14)
Blood samples were taken at day 0, 7, 14, 15 (22 hr after last IL-12 injection), 18, 28 and 35. Serum prepared from the blood samples was tested for HBV DNA by quantitative PCR (testing performed under contract by Hepadnavirus Testing, Inc.), and HBsAg using a commercially available EIA kit for HBsAg from Abbott Laboratories. Animals were sacrificed at day 35 and livers were collected for histologic analysis.

[7] = cells pre-treated 1 μg/ml, 30 sec
[8] = cells pre-treated 1 μg/ml, 10 min
[9] = cells pre-treated 1 μg/ml, 24 hr
[10] = cells pre-treated 10 μg/ml, 30 sec
[11] = cells pre-treated 10 μg/ml, 10 min
[12] = cells pre-treated 10 μg/ml, 24 hr
[13] = HSV-1 virus pre-treated 10 minutes with 1 μg/ml
[14] = HSV-1 virus pre-treated 10 minutes with 10 μg/ml
[15] = HSV-2 virus pre-treated 10 minutes with 1 μg/ml
[16] = HSV-2 virus pre-treated 10 minutes with 10 μg/ml

## 5′-TCGTCGAACGTTCGTTAACGTTCG-3′ (listed as DNA, chemistry not given here) [SEQ ID NO: 11, ISS oligonucleotide]
[1]; [7]
  Viral titer, percent of control titer: 129% of control titer
[1]; [8]
  Viral titer, percent of control titer: 95% of control titer
[1]; [9]
  Viral titer, percent of control titer: 87% of control titer
[1]; [10]
  Viral titer, percent of control titer: 122% of control titer
[1]; [11]
  Viral titer, percent of control titer: 96% of control titer
[1]; [12]
  Viral titer, percent of control titer: 78% of control titer
[2]; [7]
  Viral titer, percent of control titer: 119% of control titer
[2]; [10]
  Viral titer, percent of control titer: 136% of control titer
[3]; [13]
  Viral titer, percent of control titer: 100% of control titer
[3]; [14]
  Viral titer, percent of control titer: 100% of control titer
[4]; [15]
  Viral titer, percent of control titer: 101% of control titer
[4]; [16]
  Viral titer, percent of control titer: 97% of control titer

## 5′-TGACTGTGAACCTTAGAGATGA-3′ (chemistry not given here) [SEQ ID NO: 12, non-ISS control oligonucleotide, reference compound]
[1]; [7]
  Viral titer, percent of control titer: 132% of control titer
[1]; [8]
  Viral titer, percent of control titer: 98% of control titer
[1]; [9]
  Viral titer, percent of control titer: 97% of control titer
[1]; [10]
  Viral titer, percent of control titer: 141% of control titer
[1]; [11]
  Viral titer, percent of control titer: 100% of control titer
[1]; [12]
  Viral titer, percent of control titer: 94% of control titer
[2]; [7]
  Viral titer, percent of control titer: 111% of control titer
[2]; [10]
  Viral titer, percent of control titer: 129% of control titer
[2]; [11]
  Viral titer, percent of control titer: 100% of control titer
[2]; [12]
  Viral titer, percent of control titer: 98% of control titer
[3]; [13]
  Viral titer, percent of control titer: 98% of control titer
[3]; [14]
  Viral titer, percent of control titer: 101% of control titer
[4]; [15]
  Viral titer, percent of control titer: 100% of control titer
[4]; [16]
  Viral titer, percent of control titer: 97% of control titer

## 5′-TGACTGTGAAGGTTAGAGATGA-3′ (chemistry not given here) [SEQ ID NO: 9, reference compound]
[1]; [7]
  Viral titer, percent of control titer: 100% of control titer
[1]; [8]
  Viral titer, percent of control titer: 99% of control titer
[1]; [9]
  Viral titer, percent of control titer: 101% of control titer
[1]; [10]
  Viral titer, percent of control titer: 96% of control titer
[1]; [11]
  Viral titer, percent of control titer: 100% of control titer
[1]; [12]
  Viral titer, percent of control titer: 97% of control titer
[2]; [7]
  Viral titer, percent of control titer: 98% of control titer
[2]; [8]
  Viral titer, percent of control titer: 96% of control titer
[2]; [9]
  Viral titer, percent of control titer: 103% of control titer
[2]; [10]
  Viral titer, percent of control titer: 103% of control titer
[2]; [11]
  Viral titer, percent of control titer: 97% of control titer
[2]; [12]
  Viral titer, percent of control titer: 99% of control titer
[3]; [13]
  Viral titer, percent of control titer: 102% of control titer
[3]; [14]
  Viral titer, percent of control titer: 103% of control titer
[4]; [15]
  Viral titer, percent of control titer: 98% of control titer
[4]; [16]
  Viral titer, percent of control titer: 106% of control titer

## Nc1nc2c(ncn2COCCO)c(=O)[nH]1 [Acyclovir, reference compound]
[5]
  Cumulative recurrent mean lesion days: significant reduction in cumulative recurrent mean lesion days

B1: murine IL-12: murine IL-12, 100 ng injected intraperitoneally as comparator in STC mice (protein, UniProt P43431 23-215; P43432 23-335, looked up)
Interleukin-12 subunit alpha: RVIPVSGPARCLSQSRNLLKTTDDMVKTAREKLKHYSCTAEDIDHEDITRDQTSTLKTCLPLELHKNESCLATRETSSTTRGSCLPPQKTSLMMTLCLGSIYEDLKMYQTEFQAINAALQNHNHQQIILDKGMLVAIDELMQSLNHNGETLRQKPPVGEADPYRVKMKLCILLHAFSTRVVTINRVMGYLSSA
Interleukin-12 subunit beta: MWELEKDVYVVEVDWTPDAPGETVNLTCDTPEEDDITWTSDQRHGVIGSGKTLTITVKEFLDAGQYTCHKGGETLSHSHLLLHKKENGIWSTEILKNFKNKTFLKCEAPNYSGRFTCSWLVQRNMDLKFNIKSSSSSPDSRAVTCGMASLSAEKVTLDQRDYEKYSVSCQEDVTCPTAEETLPIELALEARQQNKYENYSTSFFIRDIIKPDPPKNLQMKPLKNSQVEVSWEYPDSWSTPHSYFSLKFFVRIQRKKEKMKETEEGCNQKGAFLVEKTSTEVQCKGGNVCVQAQDRYYNSSCSKWACVPCRVRS
[6]
  Effect on serum HBV DNA viral titer: effective in reducing viral titer
